Literature values in US20080044462A1 (Collegium Pharmaceutical, Inc. Delaware, priority 2006, published 2008).

Conditions: background statement, no test described

CC(NC(C)(C)C)C(=O)c1cccc(Cl)c1 (stereo not shown) [free base form of bupropion, 1-(3-chlorophenyl)-2[(1,1,dimethylethyl)amino]-1-propanone]
stability in the presence of oxygen: highly unstable
